Four compounds from patent publication US20090181901A1, “COMPOSITIONS AND METHODS TO INCREASE BIOAVAILABILITY OF CAROTENOIDS” (priority 2007, published 2009) can be followed below.

The nature of series [1]: In vitro stability of lutein in pH 7.0 buffer (UV-VIS degradation ratio). The class given is physicochemical. As for the experimental part: 10.0 mg ([…]) lutein in 10 ml was added to a volumetric flask and diluted to volume with THF. In a small beaker, 0.50 g PEO (20) sorbitan monooleate was dissolved in 15.0 g de-ionized water. 1.0 ml lutein THF solution was added into the water solution and sonicated until a clear yellow micro-emulsion was formed.
10.0 mg (0.006 mmol) bilberry extract was added to a second 10 ml volumetric flask and filled to volume with de-ionized water. 1.0 ml bilberry extract solution was transferred to a small beaker and sonicated until a homogeneous solution was obtained. 1.0 ml of the bilberry solution was placed into a 10 ml colorless volumetric flask and filled to volume with sodium phosphate buffer (pH=7.0). The buffered solution was placed into a 37° C. water bath for 5 hours. UV-VIS spectrometery was used to analyze the degradation ratio. All samples were made alike. Similarly, L-cysteine was used in place of bilberry extract.

Series [2] relates to CaCo-2 cells. As to the kind of experiment: Cellular uptake of Lutein and Zeaxanthine in CaCo-2 cells with or without black currant extract. The class given is in vitro ADME. The conditions noted are these: for Level observed in cells: 9 mg Lutein+1 mg Zeaxanthine/100 mL; for Absorption in presence of black currant extract (in words): compared with absence of black currant extract; for Factor by which absorption is increased in presence of Black Currant extract: with vs without Black Currant extract. The protocol:
CaCo-2 cells were cultured in Dulbeccos's Modified Eagle Medium (DMEM) containing 20% fetal bovine serum, 1.2% nonessential amino acids, 0.83 mM L-glutamine, 1.2% penicillin-streptomycin and 0.1% mercaptoethanole in an atmosphere of 5% CO2 and 95% air at 37° C.
(§1) Cells were grown in 75 cm^2 culture-flasks (T75) and sub-cultured after one week (every other day washed with PBS buffer, removed with trypsin and transferred to a new culture flask).
For experiments, cells were seeded in 6 well plates at a density of 3×10^5 cells per well and grown in an atmosphere of 5% CO2 and 95% air at 37° C., 7 to 8 days until confluence was reached. The cells were washed with PBS buffer, incubated with 4 ml medium containing the suspended samples for 30, 60 or 120 minutes.
After the corresponding incubation time, the cells were washed with PBS buffer and removed using 1 ml of TBME. Cells were sonicated 3 times for 30 seconds, centrifuged for 10 min and the pellets were discarded. The supernatant was used as sample for HPLC (lutein).
Cmax was taken directly from the concentration/time data obtained from the analysis.
The concentration/time data obtained from the analysis were further submitted to non-compartmental calculation of the AUC0-120min using the trapezoidal rule.
(§2) Quantification was performed by external standardization after linear regression analysis.
CaCo-2 cells were incubated with (9 mg Lutein+1 mg Zeaxanthine, see Table 6)/100 mL with or without 160 mg black currant extract/100 mL medium. Incubations were performed at 37° C. for 30, 60 and 120 minutes. At each time point, 3 wells were processed for analysis by collection of the incubation medium and extraction of Lutein/Zeaxanthine absorbed into the cells.

A short description of series [3]: Stability of Lutein and Zeaxanthine in incubation medium (control experiment). In kind it is physicochemical. The settings on record: for Stability in incubation medium: 37° C.; for Breakdown in incubation medium (in words): test assay conditions, 120 minutes at 37° C. From the text: In a control experiment, the stability of the analytes under the experimental conditions was investigated.

For series [4], the system named is CaCo-2 cells. Description: Cellular uptake of Lutein (esterified form) in CaCo-2 cells. The class given is in vitro ADME. The settings on record: 20 mg Luteindipalmitinic-ester/100 mL medium, alone or plus 160 mg bilberry extract or 180 mg Bil/Cys; 37° C.; lutein quantified after hydrolysis. The protocol:
(§3) CaCo-2 cells were cultured in Dulbeccos's Modified Eagle Medium containing 20% fetal bovine serum, 1.2% nonessential amino acids, 0.83 mM L-glutamine, 1.2% penicillin-streptomycin and 0.1% mercaptoethanole in an atmosphere of 5% CO2 and 95% air at 37° C.
as §1
For experiments, cells were seeded in 6 well plates at a density of 3×10^5 cells per well and grown in an atmosphere of 5% CO2 and 95% air at 37° C. 7 to 8 days until confluence was reached. The cells were washed with PBS buffer, incubated with 4 ml medium containing the suspended samples for 30, 60 or 120 minutes. […]
as §2
CaCo-2 cells were incubated with 20 mg Luteindipalmitinic-ester/100 mL medium, 20 mg (0.019 mmol) Luteindipalmitinic-ester plus 160 mg bilberry extract (25% anthocyanins, 0.08 mmol)/100 mL medium or 20 mg Luteindipalmitinic-ester plus 180 mg Bil/Cys [equivalent to 162 mg bilberry (25% anthocyanins, 0.081 mmol) and 18 mg (0.149 mmol) L-cysteine] at 37° C. for 30, 60 and 120 minutes. […] After hydrolysis of the luteinester, lutein was quantified in the cells.

Series [5] can be described thus: Cellular uptake of Lutein (free form) in CaCo-2 cells. In kind it is in vitro ADME. The conditions noted are these: human, 10 mg Lutein/100 mL medium, alone or plus 160 mg bilberry extract or 180 mg Bil/Cys. As for the experimental part:
as §3, §1
For experiments, cells were seeded in 6 well plates at a density of 3×10^5 cells per well and grown in an atmosphere of 5% CO2 and 95% air at 37° C. 7 to 8 days until confluence was reached. The cells were washed with PBS buffer, incubated with 4 ml medium containing the suspended samples for 30, 60 or 120 minutes.
After the corresponding incubation time, the cells were washed with PBS buffer and removed using 1 ml of TBME. Cells were sonicated 3 times for 30 seconds, centrifuged for 10 min and the pellets were discarded. The supernatant was used as sample for HPLC (lutein). For luteindipalmitinic-ester the supernatant was hydrolyzed by reflux heating in ethanol/HCl.
Cmax was taken directly from the concentration/time data obtained from the analysis. […]
Quantification was performed by external standardization after linear regression analysis. […]

Where [6] appears, read: Time 0 min, with BC (160 mg black currant extract/100 mL).
Setting [7] is: Time 30 min, with BC (160 mg black currant extract/100 mL).
[8] abbreviates: Time 60 min, with BC (160 mg black currant extract/100 mL).
Where [9] appears, read: Time 120 min, with BC (160 mg black currant extract/100 mL).
Where [10] appears, read: with BC (160 mg black currant extract/100 mL).
Setting [11] is: Time 120 min, slight increase ascribed to evaporation of the medium.

Each structure is given as a SMILES string.

With `N[C@@H](CS)C(=O)O` [L-Cys, L-Cysteine], the “Residual Ratio of lutein” value amounted to 90.22% in series [1] (0.2 mg (0.17 μmol/ml) L-Cys, pH 7.0, 37° C., 5 hours, blank 86.82); 94.52% in series [1] (1.0 mg (0.8 μmol/ml) L-Cys, 4.3 μg free lutein, phosphate buffer pH 7.0, 37° C., 5 hours, blank (lutein alone) 86.82); 94.47% in series [1] (2.0 mg (1.7 μmol/ml) L-Cys, 4.3 μg free lutein, pH 7.0, 37° C., 5 hours, blank 86.82); 95.41% in series [1] (5.0 mg (4.1 μmol/ml) L-Cys, 4.3 μg free lutein, pH 7.0, 37° C., 5 hours, blank 86.82); 94.74% in series [1] (10.0 mg (8.2 μmol/ml) L-Cys, 4.3 μg free lutein, pH 7.0, 37° C., 5 hours, blank 86.82). Besides, the “Protection of lutein against degradation (in words)” value in series [1] (neutral environmental conditions) is recorded as “remarkable protection”. Further, the “Concentration at which an enhanced protective effect on lutein was noted” value in series [1] (pH 7.0, 37° C., 5 hours) is on record as “about 4.1 μmol/ml”.

Take `CC1=C(/C=C/C(C)=C/C=C/C(C)=C/C=C/C=C(C)/C=C/C=C(C)/C=C/C2=C(C)C[C@@H](O)CC2(C)C)C(C)(C)C[C@H](O)C1` [Zeaxanthine, (3R,3′R)-beta, beta carotene-3,3′-diol]: the “Absorption of zeaxanthine compared to lutein (in words)” value in series [2] is “better absorption as compared to lutein”. In addition, the “Relative cellular uptake (sum of lutein and Zeaxanthine set to 100%)” value in series [2] (30 min, With Black Currant) came out at 12.7%; in series [2] (30 min, Without Black Currant), 14.4%; in series [2] (60 min, With Black Currant), 14.2%; in series [2] (60 min, Without Black Currant), 14.5%; in series [2] (120 min, With Black Currant), 13.4%; in series [2] (120 min, Without Black Currant), 12.7%. Besides, the “Level observed in cells” value in series [2] (setting [6]) was 0 ng/mL; in series [2] (Time 0 min, without BC), 0 ng/mL; in series [2] (setting [7]) it was 309 ng/mL; in series [2] (Time 30 min, without BC) it was 131 ng/mL; in series [2] (setting [8]) it was 363 ng/mL; in series [2] (Time 60 min, without BC), 240 ng/mL. Moreover, the “Level observed in cells” value is 314 ng/mL in series [2] (setting [9]) and 181 ng/mL in series [2] (Time 120 min, without BC). Moreover, the “Absorption in presence of black currant extract (in words)” value in series [2] was “better absorption”. Further, the “AUC0-120 of cellular uptake” value in series [2] (setting [10]) came out at 35.01 µg·min/mL; in series [2] (without BC) it was 20.17 µg·min/mL. Besides, the figures for the “Cmax of cellular uptake” value in series [2] (setting [10]) and in series [2] (without BC) were 363 ng/mL and 240 ng/mL, respectively. For the same compound, the “Factor by which absorption is increased in presence of Black Currant extract” value in series [2] was roughly 2. Moreover, the “Stability in incubation medium” value in series [3] (Time 0 min) came to 100%; in series [3] (setting [11]), 106%. The “Breakdown in incubation medium (in words)” value in series [3] is given as “no breakdown”.

Consider `CCCCCCCCCCCCCCCC(=O)O[C@@H]1CC(C)=C(/C=C/C(C)=C/C=C/C(C)=C/C=C/C=C(C)/C=C/C=C(C)/C=C/[C@H]2C(C)=C[C@H](OC(=O)CCCCCCCCCCCCCCC)CC2(C)C)C(C)(C)C1` [Luteinester, Luteindipalmitinic-ester], for which, in series [4], the “Cmax of cellular uptake of Luteinester” value came to 530 ng/mL and the “Total uptake of Luteinester (AUC0-120min, trapezoidal rule)” value was 42.2 µg·min/mL.

Regarding `CC1=C[C@H](O)CC(C)(C)[C@H]1/C=C/C(C)=C/C=C/C(C)=C/C=C/C=C(C)/C=C/C=C(C)/C=C/C1=C(C)C[C@@H](O)CC1(C)C` [Lutein, (3R,3′R,6′R)-beta, epsilon-carotene-3,3′-diol], the “Relative cellular uptake (sum of lutein and Zeaxanthine set to 100%)” value in series [2] (30 min, With Black Currant) was determined as 87.3%; in series [2] (30 min, Without Black Currant), 85.6%; in series [2] (60 min, With Black Currant), 85.8%; in series [2] (60 min, Without Black Currant) it was 85.5%; in series [2] (120 min, With Black Currant) it was 86.6%; in series [2] (120 min, Without Black Currant) it was 87.3%. Besides, the “Level observed in cells” value in series [2] (setting [6]) was found to be 0 ng/mL; in series [2] (Time 0 min, without BC) it was 0 ng/mL; in series [2] (setting [7]), 2120 ng/mL; in series [2] (Time 30 min, without BC), 776 ng/mL; in series [2] (setting [8]), 2346 ng/mL; in series [2] (Time 60 min, without BC), 1420 ng/mL. Besides, the “Level observed in cells” value in series [2] (setting [9]) worked out at 1897 ng/mL; in series [2] (Time 120 min, without BC), 1170 ng/mL. In series [2], the “Absorption in presence of black currant extract (in words)” value is reported as “better absorption”. In addition, the “AUC0-120 of cellular uptake” value in series [2] (setting [10]) stood at 226.1 µg·min/mL; in series [2] (without BC) it was 122.3 µg·min/mL. For the same compound, the “Cmax of cellular uptake” value was 2346 ng/mL in series [2] (setting [10]) and 1420 ng/mL in series [2] (without BC). The “Factor by which absorption is increased in presence of Black Currant extract” value in series [2] is reported as roughly 2. Besides, the results for the “Stability in incubation medium” value in series [3] (Time 0 min) and in series [3] (setting [11]) were 100% and 108%, respectively. Further, the “Breakdown in incubation medium (in words)” value in series [3] is recorded as “no breakdown”. Further, in series [5] (37° C., 0-120 min, read-out: Total uptake of Lutein (AUC0-120min, trapezoidal rule) (converted)), the AUC(0-t) at 10 mg/100 mL was 2250 ng·h/mL. Moreover, the Cmax at 10 mg/100 mL in series [5] (37° C., 30, 60, 120 minutes) was 1530 ng/mL.

The term Cmax denotes the maximum level reached in the sampled fluid or tissue.
